Paper PMC3098952 (Bioorganic & medicinal chemistry letters, 2011)
pKd: −log10 of the molar value.

Key:
EcMetAP = conditions: read-out: Reported affinity of metal for EcMetAP; ref [30], [31]; cited from earlier work
AbMetAPy = AbMetAPy (Acinetobacter baumannii, UniProt V5VCW7); experiment: Activation of and metal binding to AbMetAPy by divalent metal ions; type: biochemical, Acinetobacter baumannii ATCC 17978; conditions: Met-AMC fluorescence assay, enzyme 1 µM
AbMetAPx = AbMetAPx (Acinetobacter baumannii, UniProt A0A7U4DGZ4); experiment: Activation of and metal binding to AbMetAPx by divalent metal ions; type: biochemical, Acinetobacter baumannii ATCC 17978; conditions: Met-AMC fluorescence assay, enzyme 1 µM

## [Co+2] [Co(II)]
EcMetAP
  pKd: 6.52

## [Fe+2] [Fe(II)]
EcMetAP
  pKd: 6.70

## [Mn+2] [Mn(II)]
EcMetAP
  pKd: 5.22

## [Zn+2] [Zn (II)]
AbMetAPy
  Activation of AbMetAPy by metal ion: no activation
AbMetAPx
  Activation of AbMetAPx by metal ion: no activation
